The target in experiment [1] is T1, Δ^5 -lipoxygenase from rat basophilic leukemia (RBL-1) cells (Rattus norvegicus, UniProt P12527).
T1 construct: endogenous in cells; host or cells: RBL-1 rat basophilic leukemia cells (ATCC CRL 1378); 113,000×g supernatant (cytosolic fraction)
T1 sequence (P12527 1-673): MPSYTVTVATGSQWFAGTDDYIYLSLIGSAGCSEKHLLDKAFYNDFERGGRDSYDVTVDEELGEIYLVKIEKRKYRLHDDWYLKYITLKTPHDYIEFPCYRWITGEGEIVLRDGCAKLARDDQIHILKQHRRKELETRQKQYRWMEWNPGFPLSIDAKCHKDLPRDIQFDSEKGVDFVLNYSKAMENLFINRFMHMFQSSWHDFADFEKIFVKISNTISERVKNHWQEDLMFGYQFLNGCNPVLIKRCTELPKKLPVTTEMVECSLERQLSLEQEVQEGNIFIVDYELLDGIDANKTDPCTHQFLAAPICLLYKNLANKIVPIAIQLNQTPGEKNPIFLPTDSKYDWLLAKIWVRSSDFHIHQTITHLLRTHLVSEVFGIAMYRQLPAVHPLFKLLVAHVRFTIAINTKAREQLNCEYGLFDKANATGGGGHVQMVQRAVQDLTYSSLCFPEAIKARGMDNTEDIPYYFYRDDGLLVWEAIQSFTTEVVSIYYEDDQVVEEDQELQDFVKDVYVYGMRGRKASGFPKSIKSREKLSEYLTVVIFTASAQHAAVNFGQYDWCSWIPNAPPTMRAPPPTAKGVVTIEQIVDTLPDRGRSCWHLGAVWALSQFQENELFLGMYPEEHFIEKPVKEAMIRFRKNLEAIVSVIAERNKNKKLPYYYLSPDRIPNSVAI
The experiment can be described thus: In vitro test for Δ^5 -lipoxygenase inhibitors (5-LO), RBL-1 cell enzyme, 5-HETE radioimmunoassay. The settings on record: RBL-1 5-LO; 10 min preincubation; 8.25 μM arachidonic acid, 10 min at 37° C.; 5-HETE formation; read-out: 5-LO IC-50. Format: biochemical. How it is done:
IN VITRO TEST FOR Δ^5 -LIPOXYGENASE INHIBITORS Compounds of formula I of the invention were tested for their effect on Δ^5 -lipoxygenase from rat basophilic leukemia (RBL-1) cells. Materials. RBL-1 cells (CRL 1378) were obtained from the American TYpe Culture Collection, Rockville, MD. DMEM and glutamine were purchased from Flow Labs, McLean, VA. FBS (Gibco, Grand Island, NY) was heat-inactivated for 1 hour at 56° C. Reagents for protein determinations were obtained from Biorad, Rockville Center, NY. Arachidonic acid (approx. 99%), ATP (disodium slat), BHT, dextran (clinical grade), tetrasodium EDTA, gelatin, gentamycin sulfate solution, reduced glutathione, 1 M HEPES buffer, indomethacin, NaCl, reduced NADpH, Trizma 7.2, and Trizma 8.5 were purchased from Sigma Chemical, St. Louis, MO. CaCl2 dihydrate, Norit A charcoal, and citric acid monohydrate were obtained from Fisher Scientific, Pittsburgh, PA. […] MA. A synthetic 5-HETE standard was supplied by Dr. M. Rosenberger, Dept. of Medicinal Chemistry, Hoffmann-La Roche, Nutley, NJ; [see Corey, E.J., and Hashimoto, S. (1981 ) Tet. Letters, 22, 299-302 for method of preparation]. Ecoscint liquid sointillation fluid was purchased from National Diagnostics, Sommerville, NJ. Isolation of 5-lipoxygenase. […] Approximately 7-9 days after thawing, RBL-1 cells growing in log phase were seeded at a density of 7500 viable cells/ml in a closed 89-liter spinner flask. The cells were stirred constantly for 3-4 days at 37° C. until they reached a density greater than 500,000/ml but less than 800,00/ml. RBL-1 cells were harvested by centrifugation at 4° C. at 1500×g for 10 minutes and were washed 3 times with ice cold 0.05 M tris-HCl, pH 7.2, tetrasodium EDTA (buffer 1). The cells were washed last in 0.05 M Tris-HCl containing 14 μM indomethacin, 1 mM glutathione, 1.5 mM NaCl, and 1 mM tetrasodium EDTA (buffer 2), resuspended at a density of 5×108'/ml (approximately 10 ml) and disrupted manually at 4° C. using a 40 ml Dounce (type A pestle) homogenizer. After 5 minutes of homogenization. 95% cell lysis was confirmed by phase contrast microscopy. The broken cells were diluted 1:2 with buffer 2 and centrifuged at 12,380×g for 10 minutes at 4° C. to pellet cellular debris and granules. The 12,380×g supernatant was centrifuged at 113,000×g for 60 minutes to pellet microsomes. The high-speed supernatant (5.9±0.48 mg/ml protein) was frozen immediately in 1 ml aliquots using a dry ice/acetone bath. The isolated cytosolic fraction was stored in liquid N2 for up to 8 weeks without loss of 5-LO enzyme activity. Lipoxygenase Assay. Compounds Were dissolved at 25 mM concentration in DMSO, then diluted to final concentrations using 95% ethanol. For a typical enzyme assay, the partially purified 5-LO preparation was preincubated with drug or vehicle for 10 minutes at 30° C. The assay tubes were then transferred at a 37° C. water bath where they received arachidonic acid (8.25 μM final concentration) to initiate 5-LO activity. In addition to enzyme and substrate, each reaction tube contained: 12.5 μmoles of Tris-HCl (pH 7.2), 25 nmoles glutathione, 0.35 nmoles indomethacin and 1.25 μmoles of CaCl2 and ATP to yield a total of volume of 250 μl. The enzyme reaction was terminated after 10 minutes by the addition of 75μl […] citric acid to yield pH 3.5. The samples were immediately cooled on ice and neutralized by dilution with 0.05 M Tris-HCl, pH 8.5, which contained 25 mg/1 BHT. A boiled cytosol control was placed at the end of each assay to measure non-enzymatic oxidation of arachidonic acid. The mean specific activity of the 5-LO enzyme preparation was approximately 66.16±14.39 pmol 5-HETE/min/mg protein. Radioimmunoassay for 5-HETE. Under the assay conditions described, the 5-LO catalyzed the conversion of arachidonic acid to 5-HPETE which, as a consequence o peroxidase activity, was reduced to 5-HETE. A specific radioimmunoassay was employed to quantitate the amount (pmoles) of 5-HETE formed during the enzyme reaction. […]

For experiment [2], the target named is superoxide-dependent, iron-promoted lipid peroxidation of native rat heart cardiac lipid liposomes. The experiment in a line: Lipid peroxidation inhibition (in vitro testing of antiperoxidative agents, ANTI-OX), hypoxanthine-xanthine oxidase-Fe3+.ADP, rat cardiac liposomes, MDA equivalents. The class given is biochemical. The settings on record: 60 min, 37° C., screened at 1.0 μM, IC50 determined if inhibition ≥ 50%, read-out: ANTI-OX IC-50. As to the method:
The test system employs hypoxanthine-xanthine oxidase (XO)-Fe^3+. ADP as the free radical generator and purified, native rat-heart membrane phosphoglyceride in Hepes-KCl buffer, pH 7.4, as the substrate. Inhibition of superoxide-dependent, iron-promoted lipid peroxidation in the linear reaction phase (after 1 hour of reaction) is measured as the net formation of thiobarbituric acid (TBA)-reactive material. In this system, the TBA-reactive material, isolated by HPLC, is exclusively (>95%) malondialdehyde (MDA), a fragmentation end-product arising from fatty acyl hydroperoxides and cyclic endoperoxides. […]
a) Isolation and purification of Rat Cardiac Lipid
Conscious male Sprague-Dawley rats (~275g) maintained on a normal rodent diet were decapitated. The hearts were rapidly removed and perfused via the aorta with ice-cold 10 mM Hepes buffer, pH 7.4. The aorta and atria were removed, and the ventricular tissue was blotted and weighed (wet weight). The hearts were minced on ice with scissors and finally homogenized (100 mg tissue/ml ice-cold buffer) for 15 seconds (3×5 seconds) with a Tekmar Tissumizer at "maximal" setting. The homogenate was filtered through 4-ply cheesecloth, and homogenate lipids were extracted and purified by a modified Bligh-Dyer procedure (M.D. Marshall and M. Kates, Biochem. Biophys. Acta 260, 558 (1972). The cardiac lipids were stored in CHCl3 under nitrogen at -20° C. […]
b) Preparation of Cardiac Liposomes
Liposomes were prepared from extracted and purified, native rat heart cardiac lipid and were used as substrate for free-radical attack. Cardiac lipid (in CHCl3) was placed in a glass flask and evaporated to dryness under nitrogen at room temperature; the flask was gently rotated during evaporation to yield a thin, dry lipid film. The lipid was taken up in 10 mM Hepes-0.145M KCl, pH 7.4, and was resuspended by indirect an aerobic sonification for 15 minutes at room temperature. The liposome suspension was used immediately. […]
c) preparation of Fe^3+ -ADP Chelate
A chelate was formed in Hepes-KCl buffer between Fe^3+ (1.0mM FeCl3, final concentration) and ADP (10mM, final concentration) at pH 7.4 with stirring at room temperature. Chelation was allowed to proceed for 90 minutes prior to use. The chelate was prepared fresh for each days experiments to ensure iron solubility, effective chelation, and valence state. […]
d) Thiobarbituric Acid Reaction or Determination of Malondialdehvde Equivalents Malondialdehyde (MDA) equivalents were measured as thiobarbituric acid (TBA)-reactive material by the following modification of published methods. The reaction mixture. prepared fresh daily, contained water: BHT ([…] BHT in absolute ethanol): TBA (1.5% TBA in 0.2M Tris, pH 7.0) in the volume ratio 1:1:5. To each 1.0 ml of peroxidation reaction assayed (see below), 0.35 ml reaction mixture was added. After thorough mixing, the tubes were incubated in an 80° C. shaking water bath for 30 minutes. After this time, the tubes were plunged into an ice water bath, and the reaction was immediately stopped with 0.5 ml ice-cold 91% TCA followed by 2.0 ml CHCl3 After centrifugation for 30 minutes at 2000 rpm in a Sorval HL-8 rotor (4° C.), the absorbance of the washed, pink upper phase was read at 532 nm. A standard curve (0.8-40.0 nmol MDA) was run with every assay. For each curve, MDA was freshly prepared by acidification of 1,1,3,3 -tetraethoxypropane with 75% TCA-2.3N HCl (0.15 ml acid mixture with 1.0 ml suitably diluted tetraethoxypropane). Computer-assisted regression analysis of the standard curve was used to quantify the molar amounts of MDA equivalents in the experimental samples. […]
e) Lipid peroxidation Reaction
Cardiac liposomes were subjected to superoxidedependent. iron-promoted peroxidation in glass vessels to avoid the well-known antioxidant effects of many common polymerizing agents used to fabricate plastic labware. […]

The structures appear in SMILES notation. Counter-ions that a name gives are not always drawn.

With `Cc1c(C)c2c(c(C)c1O)CCC(C)(C#Cc1ccccc1NC(=O)C(F)(F)F)O2` (racemic) [Example 44, rac-2,2,2-Trifluoro-N-{2-[(3,4-dihydro-6-hydroxy-2,5,7,8-tetramethyl-2H-1-benzopyran-2-yl)ethynyl]phenyl}acetamide], in experiment [1], the IC50 is 10 nM.
For the compound `COc1cc(CN)cc(CCC2(C)CCc3c(C)c(O)c(C)c(C)c3O2)c1O` (racemic) [Example 68, rac-{2-[5-(Aminomethyl)-2-hydroxy-3-methoxyphenyl]ethyl}-3,4-dihydro-2,5,7,8-tetramethyl-2H-1-benzopyran-6-ol hydrochloride], the IC50 in experiment [1] came to 70 nM.
On the same count and under the same terms, in the case of `Cc1c(C)c2c(c(C)c1O)CCC(C)(C#Cc1ccc3c(c1)N(C(=O)C(F)(F)F)CCO3)O2` (racemic) [Example 45, rac-3,4-Dihydro-6-[(3,4-dihydro-6-hydroxy-2,5,7,8-tetramethyl2H-1-benzopyran-2-yl)ethynyl]-4(trifluoroacetyl)-2H-1,4-benzoxazine] it was 45 nM.
On the same count and under the same terms, in the case of `CC(=O)Oc1cc(CCC2(C)CCc3c(C)c(O)c(C)c(C)c3O2)ccc1O` (racemic) [Example 67, rac-4-[2-(3,4-Dihydro-6-hydroxy-2,5,7,8-tetramethyl-2H-1-benzopyran-2-yl)ethyl]-1,2-benzenediol-2-acetate] it was 38 nM.
As to `CCCc1cc(C#CC2(C)CCc3c(C)c(O)c(C)c(C)c3O2)ccc1O` (racemic) [Example 37, rac-3,4-Dihydro-2-[(4-hydroxy-3-propylphenyl)ethynyl]-2,5,7,8-tetramethyl-2H-1-benzopyran-6-ol], the IC50 in experiment [2] is above 1000 nM.
As for `Cc1c(C)c2c(c(C)c1O)CCC(C)(C#Cc1ccc3c(c1)NCCO3)O2` (racemic) [Example 47, rac-2-[(3,4-dihydro-2H-1,4-benzoxazine-6-yl)ethynyl]-3,4-dihydro-2,5,7,8-tetramethyl-2H-1-benzopyran-6-ol hydrochloride], in experiment [1], the IC50 was determined as 18 nM.

Values taken from patent US5015661A, “Chromanes and their pharmaceutical compositions and methods” (Hoffmann-La Roche Inc., priority 1989, dated 1991).
